Data taken from paper PMC9388626, “STUB1 is an intracellular checkpoint for interferon gamma sensing” (Scientific Reports, 2022).

System: B16-F10 cells
Assay: Western blot, IRF1, STAT1 and phospho-Tyr701-STAT1 at 2 h post IFNγ
Format: cell-based, murine
Conditions: Stub1-null B16-F10, 2 h
Experimental: Cells were dissociated from the wells with 0.25% trypsin (Gibco, 25200056). After rinsing with 0.5 ml PBS, the cell pellets were lysed with chilled cell lysis buffer (Cell Signaling Technology, #9803) supplemented with Halt protease inhibitor cocktail (Thermo Scientific, #78430) and phosphatase inhibitor (Sigma-Aldrich, # 4906837001) for 30 min with intermittent vortexing. The lysate was transferred into PCR-strip tubes and sonicated in a chilled water bath sonicator (QSonica). Lysates were clarified by centrifugation at 15,000 rpm at 4 °C for 15 min. Protein concentration was determined using BCA protein assay kit (Pierce, #23225). The lysates were mixed with LDS sample buffer (Life Technologies, NP0008) and sample reducing agent (Life Technologies, NP0009), followed by heating at 70 °C for 10 min to fully denature the protein. […] Membrane blots were pre-stained with total protein stain (LI-COR, # 926-11016) and imaged with Odyssey CLx. […] The blots were finally probed, for overnight at 4 °C, with the appropriate primary antibodies diluted in Intercept (TBS) blocking buffer supplemented with 0.1% (v/v) Tween-20, followed by the secondary antibodies (IRDye 800CW donkey anti-rabbit or anti-mouse IgG, LI-COR) for 1 h at room temperature. Fluorescent signals were imaged and quantified using Odyssey CLx and Image Studio v5.0. […]

Substance: IFNγ
- Early induction of IRF1 and phospho-Tyr701-STAT1: Loss of Stub1 lowers the stimulating threshold of IFNγ
